Assay results taken from patent publication US12415819B2, “Cu- and Ni-catalyzed decarboxylative borylation reactions” (The Scripps Research Institute, priority 2017, dated 2025).
Read-outs that look alike come from different tables or passages of the source. Residues, ends and D or L forms follow the SMILES beside them. *: point of attachment. Moc = COC(=O)*

What was measured:
[1] = target: human neutrophil elastase (Homo sapiens (Human), UniProt P08246); assay: Elastase inhibition assay, purified human neutrophil elastase; assay type: biochemical; details: for IC50 / LipE: Purified NHE; for IC50: 30 minutes incubation at room temperature, 100 μM substrate
human neutrophil elastase, sequence (P08246 30-247): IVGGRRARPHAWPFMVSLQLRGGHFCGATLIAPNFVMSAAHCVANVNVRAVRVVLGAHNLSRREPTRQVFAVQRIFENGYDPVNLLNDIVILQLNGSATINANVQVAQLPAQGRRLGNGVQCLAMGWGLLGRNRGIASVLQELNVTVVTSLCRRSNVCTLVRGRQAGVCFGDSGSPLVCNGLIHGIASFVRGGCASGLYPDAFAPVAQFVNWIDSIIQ
Procedure: Serially diluted compounds in DMSO were dispensed into a 384-well black opaque plate by Echo dispenser. 0.1 μg/mL human neutrophil elastase (EPC, Catalog# SE563, Owensville, Ms.) or human sputum diluted with assay buffer (100 mM HEPES, 500 mM NaCl, 0.02% Tween 20) was added into the 384-well plate, and was incubated with different compounds at different concentrations for 30 minutes at room temperature. The final concentration of DMSO in the reaction was 0.1%. […] Slope of fluorescence intensity vs. time representing the Vmax of enzyme activity was calculated with MARS software. % relative inhibition was calculated as: […]
(§1) IC50 was calculated based on the % relative inhibition curve using log(agonist) vs. response (three parameters) method with Prism software. All experiments were performed in triplicate for at least three independent times.

[2] = target: elastase in CF patient sputum (Homo sapiens (Human), UniProt P08246); assay: Elastase inhibition assay in CF patient sputum; assay type: biochemical; details: for IC50 / LipE: CF sputum
elastase in CF patient sputum, sequence (P08246 30-267): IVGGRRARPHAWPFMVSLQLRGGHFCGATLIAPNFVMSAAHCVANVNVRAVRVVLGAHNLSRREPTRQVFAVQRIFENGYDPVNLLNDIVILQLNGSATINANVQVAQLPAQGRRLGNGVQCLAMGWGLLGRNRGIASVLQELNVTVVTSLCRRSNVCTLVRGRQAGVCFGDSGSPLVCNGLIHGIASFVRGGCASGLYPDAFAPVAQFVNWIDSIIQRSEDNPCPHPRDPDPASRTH
Procedure: (§2) Serially diluted compounds in DMSO were dispensed into a 384-well black opaque plate by Echo dispenser. 0.1 μg/mL human neutrophil elastase (EPC, Catalog# SE563, Owensville, Ms.) or human sputum diluted with assay buffer (100 mM HEPES, 500 mM NaCl, 0.02% Tween 20) was added into the 384-well plate, and was incubated with different compounds at different concentrations for 30 minutes at room temperature. The final concentration of DMSO in the reaction was 0.1%. Elastase substrate MeOSuc-AAPV-AMC (Bachem, Catalog #I-1270, Torrance, CA) of 100 μM final concentration was then added into the reaction system just before enzyme kinetics were read on PheraSTAR plate reader at excitation of 380 nm and emission of 460 nm with a 3-minutes interval for 30 minutes in total. Slope of fluorescence intensity vs. time representing the Vmax of enzyme activity was calculated with MARS software. % relative inhibition was calculated as: […]
as §1
(§3) Human sputum was purchased from Discovery Life Sciences (Los Osos, CA). Human sputum was diluted 1:10 in volume with assay buffer (100 mM HEPES, 500 mM NaCl, 0.02% Tween 20) followed by vigorous vortexing. The 1:10 diluted human sputum was further diluted into 1:30, 1:90, 1:270, 1:810, and 1:2430. The elastase concentration was determined by elastase inhibition assay as described above. Specifically, a series of standards of human neutrophil elastase (starting at 2 μg/mL and further diluted 1:2 in volume) were prepared in the assay buffer. The samples and standards were plated in a 384-well black solid bottom plate; the substrate MeOSuc-AAPV-AMC of 100 μM final concentration was then added into the reaction system just before enzyme kinetics were read on PheraSTAR plate reader as mentioned above. The slope of enzymatic kinetic reading was calculated by MARS software. The elastase levels of the human sputum were calculated based on the standard curve.

[3] = target: elastase in COPD patient sputum (Homo sapiens (Human), UniProt P08246); assay: Elastase inhibition assay in COPD patient sputum; assay type: biochemical
elastase in COPD patient sputum, sequence (P08246 30-267): as above
Procedure: as §2, §1, §3

[4] = Mouse Liver Microsomal Metabolic Stability Assay; details: for Remaining (*NCF = 60min): MLM 0.5, no co-factor; for Remaining (T = 60 min): MLM 0.5, with NADPH regenerating system
Procedure: 100 mM potassium phosphate buffer, pH 7.4. • 2. 10 mM MgCl2 • 3) Compound Dilution:
Intermediate solution was prepared by diluting 5 μL of compound or control stock solution (10 mM in DMSO) with DMSO (45 μL) and 1:1 Methanol/Water (450 μL) (concentration=100 μM, 45% MeOH). Working solution was prepared by diluting 50 μL of the intermediate solution with 450 μL of 100 mM potassium phosphate buffer, pH=7.4 (centration=10 μM, 4.5% MeOH). • 4) NADPH regenerating system (final Isocitric dehydrogenase concentration=1 unit/mL at incubation) comprised:
10 μL/well of compound working solution or control working solution was added to all plates (T0, T5, T10, T20, T30, T60, NCF60) except the matrix blank. 80 μL/well of microsome solution was added to every plate. The mixtures of microsome solution and compound were incubated at 37° C. for about 10 min. 10 μL/well of NADPH regenerating system (pre-warmed to 37° C.) was then added to every plate to start the reaction. […] For NCF60 (abbreviation of no co-factor) no NADPH regenerating system was added, but was replaced by 10 μL/well of potassium phosphate buffer (100 mM, pH 7.4); the resulting mixture was incubated at 37° C. for 1 h.
The reactions were then terminated with the stop solution (cold at 4° C.) containing 100 ng/mL Tolbutamide and 100 ng/mL Labetalol ([…]). The sampling plates were shaken for approximately 10 minutes, then were centrifuged at 4000 rpm for 20 min at 4° C. While centrifuging, 8 new 96 well plates were loaded with […] of HPLC grade water. 100 μL of supernatant was finally added to 300 μL of HPLC grade water and mixed for LC/MS/MS analysis.
The equation of first order kinetics was used to calculate T1/2 and CIint(mic): […]

[5] = Caco-2 Permeability Assay; details: human
Procedure: Digoxin, fenoterol, and propranol were used as standards respectively. Transport Method:
The transport buffer used in the study was HBSS with 10 mM HEPES at pH 7.40±0.05. Compounds were tested at 2 μM bi-directionally in duplicates. Digoxin was tested at […] bi-directionally in a duplicate, while fenoterol and propranolol were tested at 2 μM in A(apical) to B (basolateral) direction in duplicates. The final DMSO concentration was adjusted to less than 1%. The plate was incubated for 2 hours in a CO2 incubator at 37±1° C., with 5% CO2 at saturated humidity without shaking. All samples, after mixing with acetonitrile containing internal standard, were centrifuged at 4000 rpm for 20 min. Subsequently,100 μL supernatant solution was diluted with 100 μL distilled water for LC/MS/MS analysis. Concentrations of test and control compounds in starting solution, donor solution, and receiver solution were quantified by LC/MS/MS methodologies, using peak area ratio of analyte/internal standard. After transport assay, lucifer yellow rejection assay was applied to determine the Caco-2 cell monolayer integrity.
Data analysis: The apparent permeability coefficient Papp (cm/s) was calculated using the equation:
The efflux ratio was calculated using the equation: Efflux ratio=Papp(BA)/Papp(AB)
Percent recovery was calculated using the equation: % Recovery=100×[(Vr·Cr)+(Vd·Cd)]/(Vd·C0) Where Vd is the volume in the donor chambers (0.075 mL on the apical side, 0.25 mL on the basolateral side); Cd and Cr are the final concentrations of transport compound in donor and receiver chambers, respectively.

Plasma Stability Assay = assay type: in vitro ADME, mouse; details: CD-1 Mouse Plasma
Procedure: Propantheline was used as the reference compound in this assay; all stock solutions were stored at −40° C. before use. • 2) Test system: CD-1 Mouse Plasma from a minimum of 20 male individuals were obtained from BioreclamationlVT (Catalog #: […]2-M; Batch #: MSE244515). EDTA-K2 was used as the anticoagulant. Procedure:
The frozen plasma was thawed in a water bath at 37° C. prior to the experiments. The plasma was centrifuged at 4000 rpm for 5 min and the clots were removed if necessary.
The pH was adjusted to 7.4±0.1 as necessary. An intermediate solution (1 mM) was prepared and a 100 μM dosing solution was prepared by diluting 10 μL of the intermediate solution with 90 μL 45% MeOH/H2O. Duplicate of test samples were made by mixing 98 μL of blank plasma with 2 μL of dosing solution (100 μM) to achieve the final concentration of 2 μM. Samples were incubated at 37° C. At each time point (0, 10, 30, 60, and 120 min), 400 μL of stop solution (consisting of 200 ng/mL tolbutamide and 20 ng/mL buspirone in 50% MeOH/CH3CN) was added to precipitate protein under thorough mixing. The sample plates were then centrifuged at 4,000 rpm for 10 min. An aliquot of supernatant (100 μL) was transferred from each well and mixed with 200 of μL ultrapure water. The samples were shaken at 800 rpm for about 10 min before LC-MS/MS analysis.
Data analysis: The % remaining of test compound after incubation in plasma was calculated using following equation: Remaining=100×(PAR at Tn/PAR at T0) where PAR is the peak area ratio of analyte versus internal standard (IS) and The appointed incubation time points are T0 (0 min), Tn (n=0, 10, 30, 60, 120 min).
LC-MS/MS condition: Each compound was analyzed by LC/MS using an ACE 5-phenyl 50×2.1 mm column (Part No. ACE-125-0502) with 0.1% formic acid in water and 0.1% formic acid in acetonitrile as the mobile phases. Tobultamide was used as the internal standard. Data collected were processed by Analyst 1.6.2 software and MultiQuant 3.0.2 software.

[6] = mouse, liver microsomes, pH 7.4
[7] = Caco-2, pH 7.4, Mean Recovery % A to B

For COC(=O)N[C@H](C(=O)N1CCC[C@H]1C(=O)N[C@H](C(=O)O)C(C)C)C(C)C [Compound 50b, (methoxycarbonyl)-L-valyl-L-prolyl-L-valine] (Moc-Val-Pro-Val-OH), the “inhibitory activity against HNE (in words)” value [1] was “devoid of any inhibitory activities” and the IC50 [1] was “Not Active”.

Compound Cc1c(-c2ccnn2C)cc(C(=O)NCc2ccc(S(C)(=O)=O)cn2)c(=O)n1-c1cccc(C(F)(F)F)c1 [Compound 53] has a LipE [1] of 7.32, an IC50 ([1]; read-out: IC50) of 2.62 ± 0.39 nM and an IC50 [2] of 4.08 ± 0.39 nM. It also gave a LipE [2] of 7.11, an IC50 [3] of 2.98 ± 0.82 nM and a LipE [3] of 7.22.

For CC1=C(C#N)[C@@H](c2ccc(C#N)cc2S(C)(=O)=O)N(C)C(=O)N1c1cccc(C(F)(F)F)c1 [Compound 54, BAY 85-8501], the LipE [1] was 6.76, the LipE [2] was 5.87 and the “inhibitory activity in patient sputum versus purified HNE (in words)” value ([2]; sputum samples of CF and COPD patients) was “potencies diminished drastically”. The LipE [3] was 6.85.

With COC(=O)C1=C(C)N(c2cccc(C(F)(F)F)c2)c2n[nH]c(=O)n2C1c1ccc(C#N)cc1 (stereo not drawn) [Compound 56] the LipE [1] was 4.59, the IC50 ([1]; read-out: IC50) was 1.34 ± 0.13 nM and the IC50 [2] was 2.68 ± 0.04 nM. It also gave a LipE [2] of 4.29, an IC50 [3] of 1.12 ± 0.04 nM and a LipE [3] of 4.67.

COC(=O)C1=C(C)N(c2cccc(C(F)(F)F)c2)c2nn(CC(=O)N(C)CCC[N+](C)(C)C)c(=O)n2C1c1ccc(C#N)cc1 (stereo not drawn) [Compound 57] showed a LipE [1] of 9.46, an IC50 ([1]; read-out: IC50) of 0.99 ± 0.13 nM and an IC50 [2] of 2.04 ± 0.08 nM. The LipE [2] was 9.16, the IC50 [3] was 0.97 ± 0.14 nM and the LipE [3] was 9.45.

In the case of O=C(O)Cc1ccccc1Nc1c(Cl)cccc1Cl [Diclofenac], the “Remaining (*NCF = 60min)” value [4] is reported as 88.0%, the “Remaining (T = 60 min)” value [4] is reported as 43.0% and the Extraction ratio ([4]; MLM 0.5, Qh 90.0 mL/min/Kg) is reported as 0.5. It also gave a CLint scaled at 1 μM [4, 6] of 108 mL/min/kg, a microsomal CLint at 1 μM [4, 6] of 27.2 µL/min/mg and a half-life at 1 μM ([4]; mouse, microsomes, pH 7.4) of 51 min.

With C[C@H]1O[C@@H](O[C@H]2[C@@H](O)C[C@H](O[C@H]3[C@@H](O)C[C@H](O[C@H]4CC[C@@]5(C)[C@H](CC[C@@H]6[C@@H]5C[C@@H](O)[C@]5(C)[C@@H](C7=CC(=O)OC7)CC[C@]65O)C4)O[C@@H]3C)O[C@@H]2C)C[C@H](O)[C@@H]1O [Digoxin] the Papp A→B at 120 min, 2 μM ([5]; Caco-2, pH 7.4) was < 0.02 ×10⁻⁶ cm/s, the Papp B→A at 120 min, 2 μM ([5]; Caco-2, pH 7.4) was 8.5 ×10⁻⁶ cm/s and the efflux ratio at 2 h, 2 μM ([5]; Caco-2, pH 7.4) was > 364. For the same compound, the recovery at 2 h, 2 μM [5, 7] was < 91.2% and the recovery at 2 h, 2 μM ([5]; Caco-2, pH 7.4, Mean Recovery % B to A) was 100%.

In the case of CC(Cc1ccc(O)cc1)NCC(O)c1cc(O)cc(O)c1 (stereo not drawn) [Fenoterol], the Papp A→B at 120 min, 2 μM ([5]; Caco-2, pH 7.4) is reported as 0.24 ×10⁻⁶ cm/s and the recovery at 2 h, 2 μM ([5]; Caco-2, pH 7.4) is reported as 93.4%.

In the case of CC(C)[N+](C)(CCOC(=O)C1c2ccccc2Oc2ccccc21)C(C)C [Propantheline], the “% Remaining (mean)” value (Plasma Stability Assay; 0 min, 2 μM, 37° C.) is reported as 100.0%, the “% Remaining (mean)” value (Plasma Stability Assay; 10 min) is reported as 76.8% and the “% Remaining (mean)” value (Plasma Stability Assay; 30 min) is reported as 39.1%. The “% Remaining (mean)” value (Plasma Stability Assay; 60 min) was 21.7% and the “% Remaining (mean)” value (Plasma Stability Assay; 120 min) was 7.7%.

Compound CC(C)NCC(O)COc1cccc2ccccc12 (stereo not drawn) [Propranolol] has a Papp A→B at 120 min, 2 μM ([5]; Caco-2, pH 7.4) of 19.8 ×10⁻⁶ cm/s and a recovery at 2 h, 2 μM [5, 7] of 69.2%.

In the case of C[C@]12CC[C@H]3[C@@H](CCC4=CC(=O)CC[C@@]43C)[C@@H]1CC[C@@H]2O [Testosterone], the “CLint(liver)” value ([4]; MLM 0.5) is reported as 2365.5 mL/min/kg, the “Remaining (*NCF = 60min)” value [4] is reported as 70.3% and the “Remaining (T = 60 min)” value [4] is reported as 0.0%. The half-life at 1 μM ([4]; mouse, microsomes, pH 7.4) was 2.3 min and the microsomal CLint ([4]; mouse, microsomes, pH 7.4) was 597 µL/min/mg.

Work on POL6014 [Compound 55] yielded an IC50 ([1]; read-out: IC50) of 0.093 ± 0.008 nM, an IC50 [2] of 0.48 ± 0.03 nM and a LipE [2] of 17.8. It also gave an IC50 [3] of 0.051 ± 0.004 nM and a LipE [3] of 18.8.
